Measured values published in publication PMC9537572, “Elucidation of the binding mechanism of astragaloside IV derivative with human serum albumin and its cardiotoxicity in zebrafish embryos” (Frontiers in Pharmacology, 2022).

Test system: zebrafish embryos
Assay: Astemizole-induced cardiotoxicity in zebrafish embryos: heart rate and SV-BA spacing
Format: in vivo
Conditions: 4 µM astemizole; for Heart rate (beats/min) (Mean±SE) / SV-BA spacing (µm) (Mean±SE): n = 10
Procedure: A total of 270 wild-type AB zebrafish at 3 dpf were randomly selected, and 30 zebrafish were plated in each well of a six-well plates. The concentrations of LS-102 were 27.8, 83.3 and 250 µg/ml, AGS IV was 250 µg/mL. A normal control group (fish culture water) and a 4 µM astemizole model control group were also established. Ten zebrafish were randomly selected from each group, and the heart rate and venous sinus-to-arterial bulb distance (SV-BA) of zebrafish were observed under a dissecting microscope after 2 h, 6 h and 24 h of LS-102 and AGS IV treatment. Images were collected by photographing, and the ameliorative effect of LS-102 and AGS IV on astemizole-induced cardiotoxicity in zebrafish was evaluated by the statistical significance of the heart rate and the SV-BA interval index.

CC(C)(O)C1CCC(C)(C2C(O)CC3(C)C4CC(OC5OC(C(=O)O)C(O)C(O)C5O)C5C(C)(C)C(OC6OCC(O)C(O)C6O)CCC56CC46CCC23C)O1 (centres unmarked) [LS-102, astragalosidic acid]
Heart rate (beats/min) (Mean±SE) (27.8 µg/ml, 2 h): 156 ± 1 beats/min
SV-BA spacing (µm) (Mean±SE) (27.8 µg/ml, 2 h): 179 ± 7 µm
Heart rate (beats/min) (Mean±SE) (27.8 µg/ml, 6 h): 158 ± 1 beats/min
SV-BA spacing (µm) (Mean±SE) (27.8 µg/ml, 6 h): 204 ± 6 µm
Heart rate (beats/min) (Mean±SE) (27.8 µg/ml, 24 h): 45 ± 23 beats/min
SV-BA spacing (µm) (Mean±SE) (27.8 µg/ml, 24 h): 250 ± 6 µm
Heart rate (beats/min) (Mean±SE) (83.3 µg/ml, 2 h): 157 ± 2 beats/min
SV-BA spacing (µm) (Mean±SE) (83.3 µg/ml, 2 h): 157 ± 3 µm
Heart rate (beats/min) (Mean±SE) (83.3 µg/ml, 6 h): 153 ± 1 beats/min
SV-BA spacing (µm) (Mean±SE) (83.3 µg/ml, 6 h): 168 ± 4 µm
Heart rate (beats/min) (Mean±SE) (83.3 µg/ml, 24 h): 128 ± 21 beats/min
SV-BA spacing (µm) (Mean±SE) (83.3 µg/ml, 24 h): 228 ± 7 µm
Heart rate (beats/min) (Mean±SE) (250 µg/ml, 2 h): 160 ± 1 beats/min
SV-BA spacing (µm) (Mean±SE) (250 µg/ml, 2 h): 151 ± 3 µm
Heart rate (beats/min) (Mean±SE) (250 µg/ml, 6 h): 167 ± 1 beats/min
SV-BA spacing (µm) (Mean±SE) (250 µg/ml, 6 h): 158 ± 6 µm
Heart rate (beats/min) (Mean±SE) (250 µg/ml, 24 h): 162 ± 7 beats/min
SV-BA spacing (µm) (Mean±SE) (250 µg/ml, 24 h): 174 ± 9 µm
Effect on astemizole-induced heart rate slowing and SV-BA spacing increase (in words) (2 h and 6 h, 27.8, 83.3 and 250 µg/ml): improved the slowed heart rate and increased the SV-BA spacing
Effect on astemizole-induced heart rate slowing and SV-BA spacing increase (in words) (24 h): improved the slowed heart rate at 250 µg/ml and the increase in SV-BA spacing at 83.3 and 250 µg/ml
